Data published in US20210179680A1, “POLYPEPTIDE, DERIVATIVES THEREOF, AND APPLICATION THEREOF IN PREPARATION OF DRUGS HAVING RESISTANCE TO PULMONARY FIBROSIS” (priority 2016, published 2021).
Bridge positions count the residues as written; N and C are the ends. Square brackets hold non-standard residues; d marks the D form. Peptide text beside a SMILES is read from it. S5 = C=CCCC[C@](C)(N)C(=O)O

How the values were obtained:
[1] = biological target: T1, TRB3 protein (Homo sapiens, UniProt Q96RU7); assay: Surface plasmon resonance (Biacore T200) binding of polypeptides to TRB3 protein; conditions: SPR, FIG. 4-1, 4-2 and Table 1
T1 construct: purchased RD
T1 sequence (Q96RU7 1-358): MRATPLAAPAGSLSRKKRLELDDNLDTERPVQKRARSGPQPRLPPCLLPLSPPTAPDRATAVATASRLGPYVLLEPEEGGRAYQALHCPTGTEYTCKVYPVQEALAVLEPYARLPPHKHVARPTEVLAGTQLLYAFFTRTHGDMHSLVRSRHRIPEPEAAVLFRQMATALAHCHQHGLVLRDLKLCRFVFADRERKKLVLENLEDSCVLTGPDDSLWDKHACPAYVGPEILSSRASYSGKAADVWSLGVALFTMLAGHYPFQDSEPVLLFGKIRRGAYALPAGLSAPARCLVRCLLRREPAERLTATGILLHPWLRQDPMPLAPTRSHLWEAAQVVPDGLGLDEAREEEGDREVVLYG
Method: The surface plasmon resonance experiment was carried out in a surface plasmon resonator Biacore T200, and the procedure was carried out in accordance with the instructions of the plasma resonator Biacore T200. Specific steps are as follows:
1. Purified TRB3 protein (purchased from RD) was coupled to a CMS chip (purchased from GE) by amidogen, and the unbound protein was eluted at a flow rate of 10 μL/min. The surface of the chip was equilibrated for 2 hours. Among them, the specific steps of amidogen coupling, elution and equilibration refer to the relevant instruction of GE's CMS chip.
2. 250 μL of the S1-S11 and MR2 polypeptide fragments prepared in Example 1 with different concentrations (800, 400, 200, 50, 12.5, 6.25, and 3.125 nM) were automatically injected, and the entire surface plasmon resonance experiment was carried out at 25° C. The buffer used was HBS-EP buffer [0.01 M HEPES, 0.15 M NaCl, 3 mM EDTA and 0.005% (w/w) surfactant TWEEN20]. Biacore T200's built-in analysis software was used to simulate the binding curves of different concentrations of peptides to TRB3.

[2] = α-helix ratio of polypeptides by circular dichroism; type: physicochemical; conditions: PBS solution, 1 mg/mL
Method: The α-helix ratio of the polypeptide was measured by a circular dichromatograph (purchased from Jasco, Japan). The polypeptides MR2, S1, S2, S3, S4, S5, S6, S7, S8, S9, S10 and S11 prepared in Example 1 were dissolved in PBS solution, and the working concentration of the circular dichromatograph was adjusted to 1 mg/mL. […] Among them, the α-helix ratio refers to the percentage of the number of peptide segments of the polypeptide that maintains the alpha helix of the secondary structure in the peptide segments of the total polypeptide.

[3] = biological target: T2, TRB3/MDM2 protein interaction (Homo sapiens, UniProt Q96RU7); assay: Co-immunoprecipitation: inhibition of binding of MDM2 to TRB3 in BEAS-2B cells; type: cell-based; conditions: BEAS-2B cells with TRB3 expression plasmid, 1 mg/mL polypeptide, 12 hours, co-IP with MDM2 antibody
T2 construct: host or cells: BEAS-2B
T2 sequence (Q96RU7 1-358): T1 sequence (Q96RU7 1-358)
Method: 1. Human lung epithelial BEAS-2B cells (purchased from Institute of Basic Medical Sciences, Chinese Academy of Medical Sciences) were seeded in a 90 mm^2 culture dish. After the cells were adhered to the wall of culture dish, the TRB3 expression plasmid were transferred to the cells according to the method described in Example 5. After 24 hours, 1 mg/mL of the polypeptides MR2, S1, S2, S3, S4, S5, S6, S7, S8, S9, S10 or S11 prepared in Example 1 were added respectively, and the cells were incubated for 12 hours in a 37° C. incubator and then harvested.
2. Co-immunoprecipitation with MDM2 antibody was performed according to the method described in Example 3, followed by detection using TRB3 antibody.

[4] = tested on: mice with bleomycin-induced pulmonary fibrosis; assay: HE staining pathomorphology and inflammatory score of bleomycin-induced pulmonary fibrosis; type: in vivo, C57BL/6 mice; conditions: Table 3 groups, 2 mg/kg i.p., after 28 days, grade 0-5
Method: Male C57BL/6 mice were fasted overnight, then anesthetized with 45 mg/kg sodium pentobarbital by injection intraperitoneally (i.p.), and intratracheally injected with bleomycin at a dose of 3 U/kg. The specific operation steps are as follows: cut the neck skin of the mouse with as little trauma as possible, expose the trachea with the assistance of elbow ophthalmic forceps, puncture the trachea and inject about 50 μL of bleomycin into the trachea with a microsyringe, rotate the mouse quickly and stand it upright for 5 minutes in order to make bleomycin evenly enter the left and right lobe, thereby constructing an animal model. The whole operation was performed at a surgical table at about […]. Mice in the sham operation group were intratracheally injected with an equal amount of physiological saline for injection.
General tissue changes and tissue products can be visualized by HE staining method, namely Hematoxylin and Eosin staining method, which is the most commonly used staining method for morphology. Among them, hematoxylin dyeing solution is an alkaline dyeing solution, which mainly makes the chromatin in the nucleus and the ribosome in the cytoplasm purple blue; eosin is an acid dye, which mainly makes the components in the cytoplasm and extracellular matrix red. Pulmonary fibrosis models were made according to the method described in Example 2 and administered in groups according to Table 3. After 28 days, the right lower lobe of lung tissue of the experimental animals was taken, and fixed with 4% (v/v) paraformaldehyde and embedded in paraffin. Section was performed on the largest cross-section of the paraffin block in which the lung tissue embedded, and basic pathological changes was observed through HE staining. […] The administration of polypeptides S1-S11 can reduce lung inflammation caused by bleomycin, and effectively ameliorate lung injury and restore normal lung structure.
The inflammatory grading was observed according to the results of HE staining, and the criteria were as follows (grade 0-5): grade “0”: normal tissue; grade “1”: extremely small inflammatory changes; grade “2”: mild to moderate inflammatory changes without apparent destruction of lung tissue structure; grade “3”: moderate inflammatory injury (thickening of alveolar diaphragm); grade “4”: moderate to severe inflammatory injury with formation of tissue mass, or the normal structure of lung tissue was destroyed by localized pneumonia area; grade “5”: severe inflammatory injury, severe destruction of the localized lung tissue structure, resulting in closure of lumen.
Pulmonary fibrosis models were made according to the method described in Example 2 and administered in groups according to Table 9. After 28 days, the right lower lobe of lung tissue of the experimental animals was taken, and fixed by 4% (v/v) paraformaldehyde and embedded in paraffin. Section was performed on the largest cross-section of the paraffin block in which the lung tissue embedded, and basic pathological changes was observed through HE staining.

CSCC[C@H](NC(=O)[C@H](CC(C)C)NC(=O)[C@@H](N)Cc1c[nH]cn1)C(=O)N[C@@]1(C)CCCC=CCCC[C@@](C)(C(=O)N[C@@H](C)C(=O)N[C@@H](CCCCN)C(=O)N[C@@H](CCCCN)C(=O)N[C@@H](CC(C)C)C(=O)N[C@@H](CCCCN)C(=O)N[C@@H](CCCCN)C(=O)N[C@@H](CCCNC(=N)N)C(=O)O)NC(=O)[C@H]([C@@H](C)O)NC(=O)[C@H](Cc2ccccc2)NC(=O)[C@H](CS)NC1=O [S4, His-Leu-Met-S5-Cys-Phe-Thr-S5-Ala-Lys-Lys-Leu-Lys-Lys-Arg] (H-HLM[S5]CFT[S5]AKKLKKR-OH; staple 4-8; N-terminus and C-terminus assumed)
interaction with the TRB3 protein (in words) [1]: interacted with the TRB3 protein
α-helicity (%) [2]: 33.6%
α-helix ratio compared with polypeptide MR2 (in words) [2]: significantly higher than that of polypeptide MR2
interaction of TRB3 and MDM2 protein (FIG. 5, in words) [3]: interrupted
Inflammatory score [4]: 2.833
